Test results published in the supplement of paper PMC11208160.

Assay: recombinant UMI read abundance after kanamycin selection (control-corrected) (log10(CPM+1)); higher = more efficient recombination; extreme values may be limits of the assay; sequences stand for … in AGTGCAGAGAAAATCGGCCAGTTTTCTCTGCCTGCAGTCCGCATGCCGTGGGACCCCTTGGGTTCTAACCTGTTGCCTAGATTTATGCAGCGGACTGCCTTTCTCCCAAAGTGATAAACCGG…AGGTTGGTTTCACT; site = the 11-nt donor
Procedure, shortened: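 Counts of recombinant UMIs were reported as log10(CPM+1). Before that, they were converted to CPM, averaged over replicates and scaled using control-derived factors. They came from PCR across the donor–target junction after Escherichia coli carrying the pair library and target plasmid was plated on IPTG (0.07 mM) plus kanamycin, or unselected, in two replicates each.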
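Note: IS621 bridge recombinase in Escherichia coli cells against a fixed T5 target plasmid.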

Sequence	recombinant UMI read abundance (log10)
CGGGAACCATGGACCGGTTTTCCCGGTAATCCGTATTTGCG (site CGGGAACCTCG)	0
CGGGAACCATGGACCGGTTTTCCCGGTAATCCGTATTTGTT (site CGGAATCCTAA)	0
CGGGAACCATGGACCGGTTTTCCCGGTAATCCGTATTTGTT (site CGGGAACCTAA)	0.47
CGGGAACCATGGACCGGTTTTCCCGGTAATCCGTATTTGTT (site CGGGAACCTAC)	0
CGGGAACCATGGACCGGTTTTCCCGGTAATCCGTATTTGTT (site CGGGAACCTAG)	0
CGGGAACCATGGACCGGTTTTCCCGGTAATCCGTATTTGTT (site CGGGAACCTAT)	0.0108
CGGGAGACATGGACCGGTTTTCCCGGTAATCCGTATTTGCC (site CGGGAGACTGG)	1.58
CGGGAGACATGGACCGGTTTTCCCGGTAATCCGTATTTGCC (site CGGGAGCCTGG)	0
CGGGAGACATGGACCGGTTTTCCCGGTAATCCGTATTTGCC (site CGGGAGGCTGG)	1.69
CGGGAGACATGGACCGGTTTTCCCGGTAATCCGTATTTGCC (site CGGGAGTCTGG)	0.663
CGGGAGTCATGGACCGGTTTTCCCGGTAATCCGTATTTGCG (site CGGGAGTCTAG)	1.03
CGGGAGTCATGGACCGGTTTTCCCGGTAATCCGTATTTGCG (site CGGGAGTCTCG)	2.8
CGGGAGTCATGGACCGGTTTTCCCGGTAATCCGTATTTGCG (site CGGGAGTCTGG)	0
CGGGAGTCATGGACCGGTTTTCCCGGTAATCCGTATTTGCG (site CGGGAGTCTTG)	0.888
CGGGAGTCATGGACCGGTTTTCCCGGTAATCCGTATTTGGC (site CGGGAGTCTGA)	1.59
CGGGAGTCATGGACCGGTTTTCCCGGTAATCCGTATTTGGC (site CGGGAGTCTGC)	2.76
CGGGAGTCATGGACCGGTTTTCCCGGTAATCCGTATTTGGC (site CGGGAGTCTGG)	0.911
CGGGAGTCATGGACCGGTTTTCCCGGTAATCCGTATTTGGC (site CGGGAGTCTGT)	1.96
CGGGATCCATGGACCGGTTTTCCCGGTAATCCGTATTTGCT (site CGGAATCCTAA)	0.0224
CGGGATCCATGGACCGGTTTTCCCGGTAATCCGTATTTGCT (site CGGGATCCTAG)	0
CGGGCACCATGGACCGGTTTTCCCGGTAATCCGTATTTGCA (site AGGGCACCTTG)	0.0117
CGGGCACCATGGACCGGTTTTCCCGGTAATCCGTATTTGCA (site CGGGCACCTTG)	0
CGGGCACCATGGACCGGTTTTCCCGGTAATCCGTATTTGCA (site GGGGCACCTTG)	0.00963

Sequence	recombinant UMI read abundance (log10)
CGGGCACCATGGACCGGTTTTCCCGGTAATCCGTATTTGCA (site TGGGCACCTTG)	0
CGGGGACCATGGACCGGTTTTCCCGGTAATCCGTATTTGAT (site CGGGAACCTAT)	0
CGGGGACCATGGACCGGTTTTCCCGGTAATCCGTATTTGAT (site CGGGCACCTAT)	0.00825
CGGGGACCATGGACCGGTTTTCCCGGTAATCCGTATTTGAT (site CGGGGACCTAT)	0
CGGGGACCATGGACCGGTTTTCCCGGTAATCCGTATTTGAT (site CGGGTACCTAT)	0
CGGGGACCATGGACCGGTTTTCCCGGTAATCCGTATTTGGG (site CGAGGACCTCC)	0.0137
CGGGGACCATGGACCGGTTTTCCCGGTAATCCGTATTTGGG (site CGCGGACCTCC)	0.0363
CGGGGACCATGGACCGGTTTTCCCGGTAATCCGTATTTGGG (site CGGGGACCTCC)	0.0134
CGGGGACCATGGACCGGTTTTCCCGGTAATCCGTATTTGGG (site CGTGGACCTCC)	0.00366
CGGGGCGCATGGACCGGTTTTCCCGGTAATCCGTATTTGAA (site CGGGGCGCTTT)	1.26
CGGGGCGCATGGACCGGTTTTCCCGGTAATCCGTATTTGGC (site CGGGGCGCTGC)	3.06
CGGGGCTCATGGACCGGTTTTCCCGGTAATCCGTATTTGCA (site CGGGGCTCTTG)	2.79
CGGGGTCCATGGACCGGTTTTCCCGGTAATCCGTATTTGAT (site CGGGGTCCTAT)	0
CGGGTTGCATGGACCGGTTTTCCCGGTAATCCGTATTTGGT (site CGGGTTGCTAC)	1.77
CGGTACCCATGGACCGGTTTTCCCGGTAATCCGTATTTGAG (site CGGTACCCTCT)	0.188
CGGTCACCATGGACCGGTTTTCCCGGTAATCCGTATTTGTA (site CGGTCACCTTA)	0
CGGTCATCATGGACCGGTTTTCCCGGTAATCCGTATTTGCA (site CGATCATCTAG)	0.01
CGGTCATCATGGACCGGTTTTCCCGGTAATCCGTATTTGCA (site CGGTCATCTTG)	0.39
CGGTCCTCATGGACCGGTTTTCCCGGTAATCCGTATTTGCA (site CGGTCCTCTTG)	0
CGGTCTGCATGGACCGGTTTTCCCGGTAATCCGTATTTGAG (site CGGTCTGCTCT)	0.251
CGGTTGCCATGGACCGGTTTTCCCGGTAATCCGTATTTGGC (site CGGTTGCCTGC)	0
CGTAATCCATGGACCGGTTTTCCCGGTAATCCGTATTTGAT (site CGGAATCCTAA)	0
CGTAATCCATGGACCGGTTTTCCCGGTAATCCGTATTTGAT (site CGTAATCCTAT)	0.697

Sequence	recombinant UMI read abundance (log10)
CGTAATCCATGGACCGGTTTTCCCGGTAATCCGTATTTGTC (site CGGAATCCTAA)	0
CGTAATCCATGGACCGGTTTTCCCGGTAATCCGTATTTGTC (site CGTAATCCTGA)	1.47
CGTACACCATGGACCGGTTTTCCCGGTAATCCGTATTTGAC (site AGTACACCTGT)	0
CGTACACCATGGACCGGTTTTCCCGGTAATCCGTATTTGAC (site CGTACACCTGT)	0
CGTACACCATGGACCGGTTTTCCCGGTAATCCGTATTTGAC (site GGTACACCTGT)	0
CGTACACCATGGACCGGTTTTCCCGGTAATCCGTATTTGAC (site TGTACACCTGT)	0
CGTACCGCATGGACCGGTTTTCCCGGTAATCCGTATTTGTC (site CGTACCGCTGA)	2.78
CGTAGATCATGGACCGGTTTTCCCGGTAATCCGTATTTGCA (site CGTAGATCTTG)	2.44
CGTAGTCCATGGACCGGTTTTCCCGGTAATCCGTATTTGTT (site CGGAATCCTAA)	0
CGTAGTCCATGGACCGGTTTTCCCGGTAATCCGTATTTGTT (site CGTAGTCCTAA)	0.247
CGTATACCATGGACCGGTTTTCCCGGTAATCCGTATTTGAA (site CGTATACCTTT)	0.0161
CGTATGGCATGGACCGGTTTTCCCGGTAATCCGTATTTGTG (site CGTATGGCTCA)	1.33
CGTATGTCATGGACCGGTTTTCCCGGTAATCCGTATTTGGT (site CGTATGTCTAC)	1.59
CGTATTCCATGGACCGGTTTTCCCGGTAATCCGTATTTGTG (site CGTATTCCTCA)	0.0112
CGTCACTCATGGACCGGTTTTCCCGGTAATCCGTATTTGGC (site CGTCACTCTGC)	2.8
CGTCCAACATGGACCGGTTTTCCCGGTAATCCGTATTTGTA (site AGTCCAACTTA)	0.00336
CGTCCAACATGGACCGGTTTTCCCGGTAATCCGTATTTGTA (site CGTCCAACTTA)	1.61
CGTCCAACATGGACCGGTTTTCCCGGTAATCCGTATTTGTA (site GGTCCAACTTA)	0.0127
CGTCCAACATGGACCGGTTTTCCCGGTAATCCGTATTTGTA (site TGTCCAACTTA)	0.0409
CGTCTAGCATGGACCGGTTTTCCCGGTAATCCGTATTTGGC (site CGTCTAGCTGC)	2.07
CGTCTCACATGGACCGGTTTTCCCGGTAATCCGTATTTGGT (site CGTCTCACTAC)	1.62
CGTCTTACATGGACCGGTTTTCCCGGTAATCCGTATTTGTA (site CGTCTTACTTA)	0.00853
